Reference: patent US7994140B2, “Classes of compounds that interact with GPCRs” (Alchemia Limited, priority 2002, dated 2011)

What was measured:
[1] = biological target: T1, MC4 (Homo sapiens, UniProt P32245); test: GPCR radioligand binding (RLB) assay, melanocortin MC4, [125I]NDP-αMSH; conditions: 10 micromolar compound; recombinant human receptor membranes (HEK 293)
T1 construct: purchased Perkin Elmer BioSignal; host or cells: HEK 293
How it was run: (§1)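 Competition binding against radioligand ([125I]NDP-αMSH for MC4, [125I]SST-14 for SST5) on membranes of HEK 293 cells carrying the human receptor; buffer and incubation time optimized per receptor. Filtration through 0.5% PEI-treated glass fiber, washing, then scintillation counting.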

[2] = biological target: T2, SST5 (Homo sapiens, UniProt P35346); test: GPCR radioligand binding (RLB) assay, somatostatin SST5, [125I]SST-14; conditions: for SST5 inhibition at 10 micromolar: recombinant human receptor membranes (HEK 293)
T2 construct: purchased Perkin Elmer BioSignal; host or cells: HEK 293
T2 sequence (P35346 whole entry): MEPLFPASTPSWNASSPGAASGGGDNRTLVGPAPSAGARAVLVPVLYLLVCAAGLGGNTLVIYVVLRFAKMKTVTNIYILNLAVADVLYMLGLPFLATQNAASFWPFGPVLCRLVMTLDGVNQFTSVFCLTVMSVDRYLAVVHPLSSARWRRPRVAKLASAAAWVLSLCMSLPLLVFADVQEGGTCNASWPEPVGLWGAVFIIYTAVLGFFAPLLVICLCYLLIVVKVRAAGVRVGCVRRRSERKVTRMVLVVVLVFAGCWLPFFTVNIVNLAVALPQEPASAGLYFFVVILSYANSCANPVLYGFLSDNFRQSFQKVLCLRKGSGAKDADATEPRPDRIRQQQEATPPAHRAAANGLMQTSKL
How it was run: as §1

[3] = 10 micromolar, Example Library 4

T1 sequence (P32245 whole entry): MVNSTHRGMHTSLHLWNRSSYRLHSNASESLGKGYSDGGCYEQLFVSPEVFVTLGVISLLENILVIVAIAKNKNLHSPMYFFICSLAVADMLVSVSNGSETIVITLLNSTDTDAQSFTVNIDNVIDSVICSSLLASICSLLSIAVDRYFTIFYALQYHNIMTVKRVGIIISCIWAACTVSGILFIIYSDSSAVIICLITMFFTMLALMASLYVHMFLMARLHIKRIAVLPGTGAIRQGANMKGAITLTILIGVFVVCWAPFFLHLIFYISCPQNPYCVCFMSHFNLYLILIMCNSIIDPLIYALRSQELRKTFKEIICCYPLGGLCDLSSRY

Structure (SMILES) | MC4 inhibition at 10 micromolar [1] | SST5 inhibition at 10 micromolar ([2]; 10 micromolar compound) | SSTS inhibition at 10 micromolar [2, 3] | SSTS inhibition at 10 micromolar ([2]; 10 micromolar compound, Example Library 8)
COC[C@H]1OC(OCc2ccc(-c3ccccc3)cc2)[C@H](NC(=O)CNC(=N)N)[C@@H](OCc2ccc(-c3ccccc3)cc2)[C@@H]1O (some centres unmarked) [Compound 1] | + (Indicates inhibition greater than . . . 50%) | + (Indicates inhibition greater than . . . 50%) |  | 
COC[C@H]1OC(OCc2ccccc2)[C@H](NC(=O)CCNC(=N)N)[C@@H](OCc2ccc(-c3ccccc3)cc2)[C@@H]1O (some centres unmarked) [Compound 6] | + (Indicates inhibition greater than . . . 50%) | + (Indicates inhibition greater than . . . 50%) |  | 
COC[C@H]1OC(OCc2ccc(Cl)cc2)[C@H](NC(=O)CCNC(=N)N)[C@@H](OCc2ccc(-c3ccccc3)cc2)[C@@H]1O (some centres unmarked) [Compound 13] | + (Indicates inhibition greater than . . . 50%) | + (Indicates inhibition greater than . . . 50%) |  | 
COC[C@H]1OC(OCc2ccc(Cl)cc2)[C@H](NC(=O)CCNC(=N)N)[C@@H](OCc2ccc3ccccc3c2)[C@@H]1O (some centres unmarked) [Compound 14] | + (Indicates inhibition greater than . . . 50%) | + (Indicates inhibition greater than . . . 50%) |  | 
COC[C@H]1OC(OCc2ccc(Cl)cc2)[C@H](NC(=O)CCCNC(=N)N)[C@@H](OCc2ccc3ccccc3c2)[C@@H]1O (some centres unmarked) [Compound 15] | + (Indicates inhibition greater than . . . 50%) | + (Indicates inhibition greater than . . . 50%) |  | 
COC[C@H]1OC(OCc2ccc(-c3ccccc3)cc2)[C@H](NC(=O)CCCN)[C@@H](OCc2ccc(-c3ccccc3)cc2)[C@@H]1O (some centres unmarked) [Compound 28] | + (Indicates inhibition greater than . . . 50%) | + (Indicates inhibition greater than . . . 50%) |  | 
COC[C@H]1OC(OCc2ccc(-c3ccccc3)cc2)[C@H](NC(=O)CCCNC(=N)N)[C@@H](OCc2ccc(-c3ccccc3)cc2)[C@@H]1O (some centres unmarked) [Compound 29] | + (Indicates inhibition greater than . . . 50%) | + (Indicates inhibition greater than . . . 50%) |  | 
COC[C@H]1OC(OCc2ccc(-c3ccccc3)cc2)[C@H](NC(=O)CCCNC(=N)N)[C@@H](OCc2ccc3ccccc3c2)[C@@H]1O (some centres unmarked) [Compound 30] | + (Indicates inhibition greater than . . . 50%) | + (Indicates inhibition greater than . . . 50%) |  | 
COC[C@H]1OC(OCc2ccc(-c3ccccc3)cc2)[C@H](NC(=O)CCNC(=N)N)[C@@H](OCc2ccc(Cl)cc2)[C@@H]1O (some centres unmarked) [Compound 32] | + (Indicates inhibition greater than . . . 50%) | + (Indicates inhibition greater than . . . 50%) |  | 
COC[C@H]1OC(OCc2ccc(-c3ccccc3)cc2)[C@H](NC(=O)CCCN)[C@@H](OCc2ccc(Cl)cc2)[C@@H]1O (some centres unmarked) [Compound 33] | + (Indicates inhibition greater than . . . 50%) | + (Indicates inhibition greater than . . . 50%) |  | 
COC[C@H]1OC(OCc2ccc(-c3ccccc3)cc2)[C@H](NC(=O)CCCNC(=N)N)[C@@H](OCc2ccc(Cl)cc2)[C@@H]1O (some centres unmarked) [Compound 34] | + (Indicates inhibition greater than . . . 50%) | + (Indicates inhibition greater than . . . 50%) |  | 
COC[C@H]1OC(OCc2ccc3ccccc3c2)[C@H](NC(=O)CNC(=N)N)[C@@H](OCc2ccc(-c3ccccc3)cc2)[C@@H]1O (some centres unmarked) [Compound 35] | + (Indicates inhibition greater than . . . 50%) | + (Indicates inhibition greater than . . . 50%) |  | 
COC[C@H]1OC(OCc2ccc3ccccc3c2)[C@H](NC(=O)CCNC(=N)N)[C@@H](OCc2ccc(-c3ccccc3)cc2)[C@@H]1O (some centres unmarked) [Compound 36] | + (Indicates inhibition greater than . . . 50%) | + (Indicates inhibition greater than . . . 50%) |  | 
COC[C@H]1OC(OCc2ccc3ccccc3c2)[C@H](NC(=O)CCCN)[C@@H](OCc2ccc(-c3ccccc3)cc2)[C@@H]1O (some centres unmarked) [Compound 37] | + (Indicates inhibition greater than . . . 50%) | + (Indicates inhibition greater than . . . 50%) |  | 
COC[C@H]1OC(OCc2ccc3ccccc3c2)[C@H](NC(=O)CCNC(=N)N)[C@@H](OCc2ccc3ccccc3c2)[C@@H]1O (some centres unmarked) [Compound 38] | + (Indicates inhibition greater than . . . 50%) | + (Indicates inhibition greater than . . . 50%) |  | 
COC[C@H]1OC(OCc2ccc3ccccc3c2)[C@H](NC(=O)CCCN)[C@@H](OCc2ccc3ccccc3c2)[C@@H]1O (some centres unmarked) [Compound 39] | + (Indicates inhibition greater than . . . 50%) | + (Indicates inhibition greater than . . . 50%) |  | 
COC[C@H]1OC(OCc2ccc3ccccc3c2)[C@H](NC(=O)CCCNC(=N)N)[C@@H](OCc2ccc3ccccc3c2)[C@@H]1O (some centres unmarked) [Compound 40] | + (Indicates inhibition greater than . . . 50%) | + (Indicates inhibition greater than . . . 50%) |  | 
COC[C@H]1OC(OCc2ccc3ccccc3c2)[C@H](NC(=O)CCCNC(=N)N)[C@@H](OCc2ccc(Cl)cc2)[C@@H]1O (some centres unmarked) [Compound 43] | + (Indicates inhibition greater than . . . 50%) | + (Indicates inhibition greater than . . . 50%) |  | 

Structure (SMILES) | MC4 inhibition at 10 micromolar [1] | SST5 inhibition at 10 micromolar ([2]; 10 micromolar compound) | SSTS inhibition at 10 micromolar [2, 3] | SSTS inhibition at 10 micromolar ([2]; 10 micromolar compound, Example Library 8)
COC[C@H]1OC(OCc2ccc(Cl)cc2)[C@H](NC(=O)CCCNC(=N)N)[C@@H](OCc2ccc(-c3ccccc3)cc2)[C@@H]1O (some centres unmarked) [Compound 45] | + (Indicates inhibition greater than . . . 50%) | + (Indicates inhibition greater than . . . 50%) |  | 
COC[C@H]1OC(OCc2ccc(Cl)cc2)[C@H](NC(=O)CCCN)[C@@H](OCc2ccc3ccccc3c2)[C@@H]1O (some centres unmarked) [Compound 46] | + (Indicates inhibition greater than . . . 50%) | + (Indicates inhibition greater than . . . 50%) |  | 
COCC1OC(OCc2ccc3ccccc3c2)C(NC(=O)CCCNC(=N)N)C(OCc2ccccc2)C1O (centres unmarked) [Compound 289] |  |  | + (Indicates inhibition greater than . . . 50%) | 
COCC1OC(OCc2ccc3ccccc3c2)C(NC(=O)CN)C(OCc2ccc(Cl)cc2)C1O (centres unmarked) [Compound 290] |  |  | + (Indicates inhibition greater than . . . 50%) | 
COCC1OC(OCc2ccc3ccccc3c2)C(NC(=O)CCN)C(OCc2ccc(Cl)cc2)C1O (centres unmarked) [Compound 292] |  |  | + (Indicates inhibition greater than . . . 50%) | 
COCC1OC(OCc2ccc3ccccc3c2)C(NC(=O)CN)C(OCc2ccc(-c3ccccc3)cc2)C1O (centres unmarked) [Compound 296] |  |  | + (Indicates inhibition greater than . . . 50%) | 
COCC1OC(OCc2ccc3ccccc3c2)C(NC(=O)CCN)C(OCc2ccc3ccccc3c2)C1O (centres unmarked) [Compound 304] |  |  | + (Indicates inhibition greater than . . . 50%) | 
COCC1OC(OCc2ccc3ccccc3c2)C(NC(=O)CCCN)C(OCc2ccc3ccccc3c2)C1O (centres unmarked) [Compound 306] |  |  | + (Indicates inhibition greater than . . . 50%) | 
CSC1OC(COC(=O)Cc2c[nH]c3ccccc23)C(O)C(OCc2cccc(N)c2)C1NCc1ccccc1 (centres unmarked) [Compound 310] |  | + (Indicates inhibition greater than . . . 50%) |  | 
CSC1OC(COC(=O)c2ccccc2)C(O)C(OCc2cccc(N)c2)C1NCc1ccc(Cl)cc1 (centres unmarked) [Compound 312] |  | + (Indicates inhibition greater than . . . 50%) |  | 
CSC1OC(COC(=O)Cc2c[nH]c3ccccc23)C(O)C(OCc2cccc(N)c2)C1NCc1ccc(Cl)cc1 (centres unmarked) [Compound 315] |  | + (Indicates inhibition greater than . . . 50%) |  | 
CSC1O[C@H](COCc2ccccc2)[C@@H](O)[C@H](OCc2cccc(N)c2)[C@H]1NC(=O)c1ccccc1 (some centres unmarked) [Compound 316] |  | + (Indicates inhibition greater than . . . 50%) |  | 
CSC1O[C@H](COCc2ccccc2)[C@@H](O)[C@H](OCc2cccc(N)c2)[C@H]1NC(=O)Cc1c[nH]c2ccccc12 (some centres unmarked) [Compound 319] |  | + (Indicates inhibition greater than . . . 50%) |  | 
CSC1O[C@H](COCc2ccc(Cl)cc2)[C@@H](O)[C@H](OCc2cccc(N)c2)[C@H]1NC(=O)c1ccccc1 (some centres unmarked) [Compound 321] |  | + (Indicates inhibition greater than . . . 50%) |  | 
CSC1O[C@H](COCc2ccc(Cl)cc2)[C@@H](O)[C@H](OCc2cccc(N)c2)[C@H]1NC(=O)Cc1ccccc1 (some centres unmarked) [Compound 322] |  | + (Indicates inhibition greater than . . . 50%) |  | 
CSC1OC(COCc2cccc(N)c2)C(O)C(OCc2ccccc2)C1NC(=O)c1ccccc1 (centres unmarked) [Compound 326] |  | + (Indicates inhibition greater than . . . 50%) |  | 
CSC1OC(COCc2cccc(N)c2)C(O)C(OCc2ccccc2)C1NC(=O)Cc1c[nH]c2ccccc12 (centres unmarked) [Compound 329] |  | + (Indicates inhibition greater than . . . 50%) |  | 
CSC1O[C@H](COCc2cccc(N)c2)[C@@H](O)[C@H](OCc2ccccc2)[C@H]1NC(=O)CCC1CNc2ccccc21 (some centres unmarked) [Compound 337] |  |  |  | + (Indicates inhibition greater than . . . 50%)
